Patent US9340559B2, “Proteasome inhibitor delanzomib for use in the treatment of lupus” (Cephalon, Inc., priority 2011, dated 2016)

Experiments:
MRL/lpr mice [1] = experiment: Antinuclear antibody (ANA) ELISA (anti-chromatin, anti-Smith Ag, anti-dsDNA IgG), serum of MRL/lpr mice; format: in vivo, mouse
Text: For all ANA ELISA assays, values below the limit of detection set by the lowest point along the standard or set by the manufacturer are considered out of range and are not estimated, but assumed the lowest point along the standard curve for that particular assay.

MRL/lpr mice [2] = experiment: Survival / mortality, MRL/lpr mice (Example 1); conditions: for EOS survival, true EOS mouse percentage from starting population: vehicle 92
Description: Six week old lupus-prone, female, MRL/lpr (Jackson Labs, #000485) and non-lupus prone control MRL/MpJ (Jackson Labs, #000486) mice are obtained from Jackson Laboratories (Bar Harbor, Me.) at 6-weeks of age. All mice are maintained on a 24 hour light/dark cycle, with food and water available ad libitum. All experimental animal procedures are approved by and in accordance to the regulations of the Institutional Animal Care and Use Committee (IACUC) of Cephalon, Inc; approved IACUC protocol #03-040 and #03-03-041.
Due to this impaired tolerance mechanism, a percentage of all T and B cells that enter the periphery have a high likelihood of responding to self protein/tissues and thus initiate autoimmunity early in life. The MRL/lpr model mice develop several chronic inflammatory disease-like symptoms that are characteristic of early and late lupus including the generation of anti-nuclear antibodies, arthritis, dermatological manifestations, immunocomplex-mediated glomerulonephritis leading to proteinuria and eventual death. Lesser characterized phenomenon are CNS and cardiac manifestations, both of which are more common in humans. […] Mortality is higher in the females and occurs around 25 weeks of age, renal disease includes glomerulonephritis, glomerular infiltrates, sclerosis and vasculitis. Both splenomegaly and lymphomegaly associated with dermatitis can also be observed.
MRL/lpr mice are first randomized, initial bleeds collected, and body weights recorded for baseline measurements (FIG. 1). All mice are individually ear tagged and are monitored throughout the entire experiment (e.g., “Group#-Cage letter-Mouse#”, so “3B5”=Group 3 (G3), cage B, mouse #5). Mice are age-matched and treatment started at 6-8 weeks of age. Cheek bleeds and urine collection continues weekly throughout the experiment. Mice are individually tracked for several parameters including cytokine and ANA levels, proteinuria, body mass, lymphomegaly, general health, and mortality. All parameters are evaluated bi-monthly except mortality which is monitored daily. All groups consist of a minimum of at least 10-12 mice per group. Ex vivo experiments include flow cytometry analyses for plasma cells, serum complement C3 and ANA levels; urine protein and leukocytes, serum cytokine profiling, renal histo pathology, and determination of compound levels (pharmacokinetics (PK)) in the spleen, kidney and plasma. Mice are tracked on an individual basis. For all data, mice are grouped into populations and data graphed as mean±SEM. End-stage readouts are analyzed as described in the MATERIALS AND METHODS section (above) and in FIG. 1.
Vehicle alone is provided orally twice weekly (p.o.). Both proteasome inhibitors are suspended in the vehicle solution. Bi-monthly bleeds and urine are collected and frozen at […] until assayed. End analyses include kidney histology, splenocyte B-cell Elispots, flow cytometry for B and T cell populations, PD markers, serum cytokines, antibody and complement levels. In addition, urine proteinuria is determined for all animals.
In group two (G2), COMPOUND A was administered at a dose of 3 mg/kg iv twice weekly. In group three (G3), COMPOUND A was administered at a dose of 10 mg/kg p.o. twice weekly. […] In the new group five (G5), bortezomib was administered at a dose of 0.3 mg/kg iv twice weekly. Dexamethasone was administered at a dose of 1.5 mg/kg/2d (M, W, F) ip. Vehicle was 3% DMSO/10% Solutol/87% PBS. In those instances in which mice could not be injected via the iv route, agents were administered ip as noted in Table 1.

NZM mice = experiment: Antinuclear antibody (ANA) ELISA (anti-chromatin, anti-Smith Ag, anti-dsDNA), serum of NZM mice (Example 2); format: in vivo, mouse
MRL/lpr mice [3] = experiment: Splenomegaly (spleen mass), MRL/lpr mice; format: in vivo, mouse
Description: FIG. 5 depicts splenomegaly for MRL/lpr mice across treatment groups for the study duration. MRL/lpr mice were treated as outlined in the legend. The spleen masses for all mice that survived until the end of the experiment are graphed. Each symbol represents the spleen weight for one mouse at 25 weeks of age.
Mice are tracked on an individual basis.
Vehicle alone is provided orally twice weekly (p.o.). Both proteasome inhibitors are suspended in the vehicle solution. […] In addition, urine proteinuria is determined for all animals.
Vehicle was 3% DMSO/10% Solutol/87% PBS.

MRL/lpr mice [4] = experiment: Urinalysis: total urine protein (proteinuria), MRL/lpr mice; format: in vivo, mouse
Description: Urine samples are acid precipitated for total protein recovery and analysis. Samples for which enough urine remained are used for Uristix® leukouria analysis. Briefly, a standard protein solution is prepared from normal mouse sera and is used as a standard for mouse urinary protein assay by turbidity. Standard preparation is as follows: 0, 5, 10, 15, 20, 30, 40, and 50 μL of a 4 mg/mL mouse sera standard protein solution as provided in the kit are added in duplicate into two columns. PBS is added to individual wells to adjust the final volume to 50 μL. For urine sample preparation, urine samples are centrifuged at 9880×g for 3 minutes using a tabletop micro-centrifuge. Urine supernatant (1-50 μL) is added in duplicate. PBS is added to adjust the volume to 50 μL total. For the turbidity assay: 25 μL of 0.1 N HCl is added into blank columns and 250 μL of 3% sulfosalicyclic acid into the test columns. The microplate is incubated for 10 minutes at RT and plates are read using an ELISA reader with single beam at 450 nm. For the Uristix® strip assay, strips are laid out and labeled. Twenty microliters of urine are placed onto each test strip square and incubated for at least 30 seconds before the result is recorded. For all total urine analysis plate-based assays, values below the limit of detection set by the lowest point along the standard or set by the manufacturer are considered out of range and are not estimated, but assumed the lowest point along the standard curve for that particular assay.

CC(C)C[C@H](NC(=O)[C@@H](NC(=O)c1cccc(-c2ccccc2)n1)[C@@H](C)O)B(O)O [COMPOUND A, [(1R)-1-[[(2S,3R)-3-hydroxy-2-[6-phenyl-pyridine-2-carbonyl)amino]-1-oxobutyl]amino]-3-methylbutylboronic acid]
ANA AUC Smith Ag, percent change vs vehicle (MRL/lpr mice [1]; G1: 3 mg/kg iv, 1× wk): −96%
ANA AUC chromatin, percent change vs vehicle (MRL/lpr mice [1]; G1: 3 mg/kg iv, 1× wk): −94%
ANA AUC dsDNA, percent change vs vehicle (MRL/lpr mice [1]; G1: 3 mg/kg iv, 1× wk): −91%
ANA AUC Smith Ag, percent change vs vehicle (MRL/lpr mice [1]; G2: 3 mg/kg iv, 2× wk): −96%
ANA AUC chromatin, percent change vs vehicle (MRL/lpr mice [1]; G2: 3 mg/kg iv, 2× wk): −94%
ANA AUC dsDNA, percent change vs vehicle (MRL/lpr mice [1]; G2: 3 mg/kg iv, 2× wk): −95%
ANA AUC Smith Ag, percent change vs vehicle (MRL/lpr mice [1]; G3: 10 mg/kg po, 2× wk): −94%
ANA AUC chromatin, percent change vs vehicle (MRL/lpr mice [1]; G3: 10 mg/kg po, 2× wk): −91%
ANA AUC dsDNA, percent change vs vehicle (MRL/lpr mice [1]; G3: 10 mg/kg po, 2× wk): −37%
anti-Smith Ag IgG ANA level decrease vs vehicle at EOS (MRL/lpr mice [1]; Group 1): 97%
anti-chromatin IgG level reduction vs vehicle (MRL/lpr mice [1]; Group 1): 89%
anti-dsDNA IgG ANA decrease vs vehicle (MRL/lpr mice [1]; Group 1 (iv)): 80%
anti-Smith Ag IgG ANA level decrease vs vehicle at EOS (MRL/lpr mice [1]; Group 2): 100%
anti-chromatin IgG level reduction vs vehicle (MRL/lpr mice [1]; Group 2): 98%
anti-dsDNA IgG ANA decrease vs vehicle (MRL/lpr mice [1]; Group 2 (iv)): 84%
anti-Smith Ag IgG ANA level decrease vs vehicle at EOS (MRL/lpr mice [1]; Group 3): 86%
anti-chromatin IgG level reduction vs vehicle (MRL/lpr mice [1]; Group 3): 79%
increase in survival over that of vehicle (MRL/lpr mice [2]; 0.3 mg/kg iv twice weekly regimen (so in the source)): 8.4%
increase in survival over that of vehicle (MRL/lpr mice [2]; 0.3 mg/kg once weekly regimen (so in the source)): 5%
increase in survival over that of vehicle (MRL/lpr mice [2]; 10 mg/kg oral, twice weekly regimen): 8.4%
EOS survival, true EOS mouse percentage from starting population (MRL/lpr mice [2]; G1: 3 mg/kg iv, 1× wk): 87%
EOS survival, true EOS mouse percentage from starting population (MRL/lpr mice [2]; G2: 3 mg/kg iv, 2× wk): 100%
EOS survival, true EOS mouse percentage from starting population (MRL/lpr mice [2]; G3: 10 mg/kg po, 2× wk): 100%
animal mortality (mice dead out of total) (MRL/lpr mice [2]; initial G1 dose 4 mg/kg iv once weekly, at day 71): 4 out of 15
ANA Smith Ag AUC, percent change vs vehicle (NZM mice; G1 3 mg/kg ip, 1× wk): −88%
ANA chromatin AUC, percent change vs vehicle (NZM mice; G1 3 mg/kg ip, 1× wk): −63%
ANA dsDNA AUC, percent change vs vehicle (NZM mice; G1 3 mg/kg ip, 1× wk): −21%
ANA Smith Ag AUC, percent change vs vehicle (NZM mice; G2 3 mg/kg ip, 2× wk): 8%
ANA chromatin AUC, percent change vs vehicle (NZM mice; G2 3 mg/kg ip, 2× wk): −79%
ANA dsDNA AUC, percent change vs vehicle (NZM mice; G2 3 mg/kg ip, 2× wk): −68%
serum anti-dsDNA Ab decrease vs vehicle (NZM mice; once weekly COMPOUND A): 21%
serum anti-Smith Ag Ab decrease vs vehicle (NZM mice; once weekly COMPOUND A (3 mg/kg ip)): 88%
serum anti-chromatin Ab decrease vs vehicle (NZM mice; twice weekly (3 mg/kg ip)): 79%
serum anti-dsDNA Ab decrease vs vehicle (NZM mice; twice weekly COMPOUND A): 68%
serum anti-chromatin Ab decrease vs vehicle (NZM mice; weekly (3 mg/kg ip)): 63%
splenomegaly decrease vs vehicle at the end of the study (MRL/lpr mice [3]; 3 mg/kg iv twice weekly): 74%
EOS spleen mass, percent change vs vehicle (MRL/lpr mice [3]; G1: 3 mg/kg iv, 1× wk): −67%
EOS spleen mass, percent change vs vehicle (MRL/lpr mice [3]; G2: 3 mg/kg iv, 2× wk): −74%
EOS spleen mass, percent change vs vehicle (MRL/lpr mice [3]; G3: 10 mg/kg po, 2× wk): −56%
Urine AUC proteinuria, percent change vs vehicle (MRL/lpr mice [4]; G1: 3 mg/kg iv, 1× wk): −60%
Urine AUC proteinuria, percent change vs vehicle (MRL/lpr mice [4]; G2: 3 mg/kg iv, 2× wk): −70%
Urine AUC proteinuria, percent change vs vehicle (MRL/lpr mice [4]; G3: 10 mg/kg po, 2× wk): −71%
total urine protein reduction relative to vehicle (MRL/lpr mice [4]; Group 1): 60%
total urine protein reduction relative to vehicle (MRL/lpr mice [4]; Group 2): 70%
total urine protein reduction relative to vehicle (MRL/lpr mice [4]; Group 3): 71%

CC(C)C[C@H](NC(=O)[C@H](Cc1ccccc1)NC(=O)c1cnccn1)B(O)O [bortezomib, reference compound]
ANA AUC Smith Ag, percent change vs vehicle (MRL/lpr mice [1]; G4: 0.5 mg/kg iv, 1× wk): −84%
ANA AUC chromatin, percent change vs vehicle (MRL/lpr mice [1]; G4: 0.5 mg/kg iv, 1× wk): −82%
ANA AUC dsDNA, percent change vs vehicle (MRL/lpr mice [1]; G4: 0.5 mg/kg iv, 1× wk): −88%
ANA AUC Smith Ag, percent change vs vehicle (MRL/lpr mice [1]; G5: 0.3 mg/kg iv, 2× wk): −58%
ANA AUC chromatin, percent change vs vehicle (MRL/lpr mice [1]; G5: 0.3 mg/kg iv, 2× wk): −58%
ANA AUC dsDNA, percent change vs vehicle (MRL/lpr mice [1]; G5: 0.3 mg/kg iv, 2× wk): −76%
anti-Smith Ag IgG ANA level decrease vs vehicle at EOS (MRL/lpr mice [1]; Group 4): 74%
anti-dsDNA IgG ANA decrease vs vehicle (MRL/lpr mice [1]; Group 4 (iv)): 82%
anti-dsDNA IgG ANA decrease vs vehicle (MRL/lpr mice [1]; Group 5 (iv)): 58%
anti-chromatin IgG level decrease vs vehicle (MRL/lpr mice [1]; weekly bortezomib dose): 64%
decrease in survival over that of vehicle at EOS (MRL/lpr mice [2]; 0.3 mg/kg iv twice weekly): 19%
decrease in survival over that of vehicle at EOS (MRL/lpr mice [2]; 0.5 mg/kg iv once weekly): 2%
EOS survival, true EOS mouse percentage from starting population (MRL/lpr mice [2]; G4: 0.5 mg/kg iv, 1× wk): 90%
EOS survival, true EOS mouse percentage from starting population (MRL/lpr mice [2]; G5: 0.3 mg/kg iv, 2× wk): 73%
tolerability of initial dose (MRL/lpr mice [2]; initial G4 dose 0.5 mg/kg iv twice weekly): animal mortality
ANA Smith Ag AUC, percent change vs vehicle (NZM mice; G3 0.3 mg/kg ip, 1× wk): −22%
ANA chromatin AUC, percent change vs vehicle (NZM mice; G3 0.3 mg/kg ip, 1× wk): 113%
ANA dsDNA AUC, percent change vs vehicle (NZM mice; G3 0.3 mg/kg ip, 1× wk): 95%
ANA Smith Ag AUC, percent change vs vehicle (NZM mice; G4 0.3 mg/kg ip, 2× wk): −53%
ANA chromatin AUC, percent change vs vehicle (NZM mice; G4 0.3 mg/kg ip, 2× wk): −22%
ANA dsDNA AUC, percent change vs vehicle (NZM mice; G4 0.3 mg/kg ip, 2× wk): −2%
reduction in anti-chromatin Ab relative to vehicle, significance (NZM mice; bortezomib, Dex or CTX treatment groups): none of which was significant
serum anti-dsDNA Ab increase vs vehicle (NZM mice; once weekly bortezomib): 95%
serum anti-Smith Ag Ab decrease vs vehicle (NZM mice; once weekly bortezomib (0.3 mg/kg ip)): 22%
serum anti-dsDNA Ab decrease vs vehicle (NZM mice; twice weekly bortezomib): 2%
serum anti-chromatin Ab decrease vs vehicle (NZM mice; twice weekly bortezomib (0.3 mg/kg ip)): 22%
EOS spleen mass, percent change vs vehicle (MRL/lpr mice [3]; G4: 0.5 mg/kg iv, 1× wk): −68%
EOS spleen mass, percent change vs vehicle (MRL/lpr mice [3]; G5: 0.3 mg/kg iv, 2× wk): −44%
Urine AUC proteinuria, percent change vs vehicle (MRL/lpr mice [4]; G4: 0.5 mg/kg iv, 1× wk): −55%
Urine AUC proteinuria, percent change vs vehicle (MRL/lpr mice [4]; G5: 0.3 mg/kg iv, 2× wk): −50%
proteinuria decrease relative to vehicle (MRL/lpr mice [4]; treated weekly with bortezomib): 55%
